Results taken from ChEMBL document CHEMBL5154898, “Discovery and Optimization of 5-Hydroxy-Diclofenac toward a New Class of Ligands with Nanomolar Affinity for the CaMKIIα Hub Domain” (J Med Chem, 2022).

Experiments:
[1] = target: T1, Calcium/calmodulin-dependent protein kinase type II subunit alpha (Rattus norvegicus, UniProt P11275); experiment: Displacement of [3H]NCS-382 from CaMK2alpha in rat brain cerebral cortex membrane homogenates assessed as inhibition constant measured after 60 mins by TopCount scintillation counting method; format: cell membranes
[2] = target: Calcium/calmodulin-dependent protein kinase type II subunit alpha (Rattus norvegicus) (UniProt P11275); experiment: Inhibition of [3H]NCS-382 binding to CaMK2alpha in rat brain cerebral cortex membrane homogenates at 100 uM measured after 60 mins by TopCount scintillation counting method relative to control; format: cell membranes
[3] = target: Calcium/calmodulin-dependent protein kinase type II subunit alpha (Homo sapiens, UniProt Q9UQM7); experiment: Inhibition of [3H]NCS-382 binding to CaMK2alpha (unknown origin)
[4] = target: T1, Calcium/calmodulin-dependent protein kinase type II subunit alpha; experiment: Displacement of [3H]HOCPCA from CaMK2alpha in rat brain cerebral cortex membrane homogenates assessed as inhibition constant measured after 60 mins by TopCount scintillation counting method; format: cell membranes
[5] = Plasma concentration in C57BL/6J mouse at 10 mg/kg , po measured after 30 mins by UPLC based tandem mass spectrometry analysis; format: ADME, organism-based
[6] = Brain concentration in C57BL/6J mouse at 10 mg/kg , po measured after 30 mins by UPLC based tandem mass spectrometry analysis; format: ADME, organism-based; details: read-out: Ct
[7] = Ratio of drug concentration in brain to plasma in C57BL/6J mouse at 10 mg/kg , po measured after 30 mins by UPLC based tandem mass spectrometry analysis; format: ADME, organism-based; details: read-out: BPR
[8] = target: T1, Calcium/calmodulin-dependent protein kinase type II subunit alpha; experiment: Inhibition of [3H]NCS-382 binding to CaMK2alpha in rat cerebrocortical membranes; format: cell membranes, Cerebral cortex, Membrane
MDR1 (P-gp) [9] = experiment: Apparent permeability across apical to basolateral side in dog MDCKII-MDR1 cells at 3 uM measured after 60 to 90 mins by LC-MS/MS analysis; format: ADME, cell-based, Canis lupus familiaris; details: MDCK-MDR1, time 60-90 min
[10] = Plasma concentration in C57BL/6J mouse at 5 mg/kg , sc measured after 30 mins by UPLC based tandem mass spectrometry analysis; format: ADME, organism-based
[11] = Chemical stability of compound in PBS buffer at pH 7.4 assessed as half life at 25 degreeC incubated for 7 days by HPLC based LC-MS analysis; format: physicochemical; details: time 7 day
[12] = Chemical stability of compound in PBS buffer at pH 7.4 assessed as half life at 37 degreeC incubated for 7 days by HPLC based LC-MS analysis; format: physicochemical; details: time 7 day
[13] = Brain concentration in C57BL/6J mouse at 5 mg/kg , sc measured after 30 mins by UPLC based tandem mass spectrometry analysis; format: ADME, organism-based; details: read-out: Ct
[14] = Ratio of drug concentration in brain to plasma in C57BL/6J mouse at 5 mg/kg , sc measured after 30 mins by UPLC based tandem mass spectrometry analysis; format: ADME, organism-based; details: read-out: BPR
MDR1 (P-gp) [15] = experiment: Apparent permeability across basolateral to apical side in dog MDCKII-MDR1 cells at 3 uM measured after 60 to 90 mins by LC-MS/MS analysis; format: ADME, cell-based, Canis lupus familiaris; details: MDCK-MDR1, time 60-90 min
BCRP [16] = experiment: Apparent permeability across apical to basolateral side in dog MDCK-II cells expressing BCRP at 3 uM measured after 60 to 90 mins by LC-MS/MS analysis; format: ADME, cell-based, Canis lupus familiaris; details: time 60-90 min
BCRP [17] = experiment: Apparent permeability across basolateral to apical side in dog MDCK-II cells expressing BCRP at 3 uM measured after 60 to 90 mins by LC-MS/MS analysis; format: ADME, cell-based, Canis lupus familiaris; details: time 60-90 min
BCRP [18] = experiment: Apparent permeability across apical to basolateral side in dog MDCK-II cells expressing BCRP at 3 uM preincubated with BCRP inhibitor, Ko 143 for 15 to 30 mins followed by compound addition and measured after 60 to 90 mins by LC-MS/MS analysis; format: ADME, cell-based, Canis lupus familiaris; details: with Ko 143 (BCRP inhibitor; concentration not stated), time 60-90 min
BCRP [19] = experiment: Apparent permeability across basolateral to apical side in dog MDCK-II cells expressing BCRP at 3 uM preincubated with BCRP inhibitor, Ko 143 for 15 to 30 mins followed by compound addition and measured after 60 to 90 mins by LC-MS/MS analysis; format: ADME, cell-based, Canis lupus familiaris; details: with Ko 143 (BCRP inhibitor; concentration not stated), time 60-90 min
MDR1 (P-gp) [20] = experiment: Apparent permeability across apical to basolateral side in dog MDCKII-MDR1 cells at 3 uM preincubated with P-gp inhibitor elacridar for 15 to 30 mins followed by compound addition and measured after 60 to 90 mins by LC-MS/MS analysis; format: ADME, cell-based, Canis lupus familiaris; details: MDCK-MDR1, with elacridar (P-gp inhibitor; concentration not stated), time 60-90 min
MDR1 (P-gp) [21] = experiment: Apparent permeability across basolateral to apical side in dog MDCKII-MDR1 cells at 3 uM preincubated with P-gp inhibitor elacridar for 15 to 30 mins followed by compound addition and measured after 60 to 90 mins by LC-MS/MS analysis; format: ADME, cell-based, Canis lupus familiaris; details: MDCK-MDR1, with elacridar (P-gp inhibitor; concentration not stated), time 60-90 min
[22] = Chemical stability of compound in PBS buffer at pH 7.4 assessed as cyclized intermediate formation at 25 to 37 degreeC incubated for 7 days by HPLC based LC-MS analysis; format: physicochemical; details: pH 7.4, 168 h, time 7 day
[23] = Chemical stability of compound in PBS buffer at pH 7.4 assessed as oxidized intermediate formation at 25 to 37 degreeC incubated for 7 days by HPLC based LC-MS analysis; format: physicochemical; details: pH 7.4, 168 h, time 7 day

Sequence of Calcium/calmodulin-dependent protein kinase type II subunit alpha (Homo sapiens, UniProt Q9UQM7) (Q9UQM7 whole entry): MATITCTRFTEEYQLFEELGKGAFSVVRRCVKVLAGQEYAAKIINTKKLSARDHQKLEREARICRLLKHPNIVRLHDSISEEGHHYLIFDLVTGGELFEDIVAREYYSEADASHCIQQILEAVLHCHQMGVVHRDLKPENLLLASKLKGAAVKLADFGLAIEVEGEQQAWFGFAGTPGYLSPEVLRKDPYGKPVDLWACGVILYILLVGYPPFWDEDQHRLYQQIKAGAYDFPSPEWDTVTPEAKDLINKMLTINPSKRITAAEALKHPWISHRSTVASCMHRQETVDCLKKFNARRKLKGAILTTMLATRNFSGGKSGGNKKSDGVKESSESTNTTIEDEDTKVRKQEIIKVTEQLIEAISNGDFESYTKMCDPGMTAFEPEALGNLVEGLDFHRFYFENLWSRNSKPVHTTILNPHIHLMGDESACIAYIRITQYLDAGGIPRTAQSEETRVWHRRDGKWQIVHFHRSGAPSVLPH
T1 sequence (P11275 whole entry): as the sequence (Q9UQM7 whole entry) above, with S324N counted along it
Sequence of Calcium/calmodulin-dependent protein kinase type II subunit alpha (Rattus norvegicus) (P11275 whole entry): as the sequence (Q9UQM7 whole entry) above, with S324N counted along it

## O=C(O)Cc1ccccc1Oc1ccc(O)cc1CC(=O)O
[1]
  Ki: 830 nM

## O=C(O)Cc1ccc(O)cc1Oc1ccccc1
[1]
  Ki: 47 nM

## O=c1[nH]c(Cc2cc(O)ccc2Oc2ccccc2Cl)no1
[1]
  Ki: 1200 nM

## O=C1Cc2cc(O)ccc2N1c1c(Cl)cccc1Cl
[1]
  Ki: > 100000 nM
[2]
  inhibition: < 50%

## O=C(O)Cc1ccccc1Nc1c(Cl)cc(O)cc1Cl [4'-HYDROXY-DICLOFENAC]
[3]
  Ki: 2100 nM

## Oc1ccc(Oc2ccccc2Cl)c(Cc2cc(O)no2)c1
[1]
  Ki: 20000 nM

## Oc1ccc(Oc2ccccc2Cl)c(Cc2nnn[nH]2)c1
[4]
  Ki: 94 nM
[1]
  Ki: 70 nM
[5]
  concentration at 0.5 h: 1970 ng/mL
[6]
  concentration at 0.5 h: 22 ng/mL
[7]
  Kp at 0.5 h: 0.012

## O=C(O)Cc1cc(O)ccc1Oc1ccc([N+](=O)[O-])cc1Cl
[1]
  Ki: 14 nM

## O=C(O)Cc1cc(O)ccc1Oc1ccccc1O
[1]
  Ki: 33 nM

## O=C(O)Cc1ccccc1O
[8]
  IC50: 2100 nM
  Ki: 2000 nM

## O=C(O)Cc1ccc(O)cc1Nc1c(Cl)cccc1Cl
MDR1 (P-gp) [9]
  Papp A→B at 3 µM: 4.66 ×10⁻⁶ cm/s
[10]
  concentration at 0.5 h: 6790 ng/mL
[11]
  half-life: 10 h
[12]
  half-life: 24 h
[13]
  concentration at 0.5 h: 88 ng/mL
[14]
  Kp at 0.5 h: 0.013
MDR1 (P-gp) [15]
  Papp B→A at 3 µM: 3.73 ×10⁻⁶ cm/s
BCRP [16]
  Papp A→B at 3 µM: 1.25 ×10⁻⁶ cm/s
BCRP [17]
  Papp B→A at 3 µM: 19.1 ×10⁻⁶ cm/s
BCRP [18]
  Papp A→B at 3 µM: 3.05 ×10⁻⁶ cm/s
BCRP [19]
  Papp B→A at 3 µM: 4.03 ×10⁻⁶ cm/s
MDR1 (P-gp) [20]
  Papp A→B at 3 µM: 4.15 ×10⁻⁶ cm/s
MDR1 (P-gp) [21]
  Papp B→A at 3 µM: 2.71 ×10⁻⁶ cm/s

## O=C(O)/C=C/c1ccc(O)cc1 [COUMARIC ACID]
[3]
  Ki: > 100000 nM

## O=C(O)Cc1ccc(O)cc1Oc1ccccc1Cl
[4]
  Ki: 53 nM
[1]
  Ki: 27 nM
[5]
  concentration at 0.5 h: 29400 ng/mL
[22]
  Stability: Stable
[23]
  Stability: Stable
[6]
  concentration at 0.5 h: 308 ng/mL
[7]
  Kp at 0.5 h: 0.011

## O=C(O)Cc1cc(O)ccc1Oc1c(Cl)cccc1Cl
[1]
  Ki: 70 nM

## O=C(O)CCCO [OXYBATE]
[3]
  Ki: 4300 nM

## O=C(O)Cc1cccc(O)c1 [3-Hydroxyphenylacetate]
[8]
  IC50: 130 nM
  Ki: 126 nM

## O=C(O)Cc1ccc(O)cc1Sc1ccccc1
[1]
  Ki: 77 nM

## O=C(O)C(F)(F)c1cc(O)ccc1Oc1ccccc1Cl
[1]
  Ki: 1200 nM

## O=C(O)/C=C/c1ccccc1 [CINNAMIC ACID]
[3]
  Ki: > 100000 nM

## NC(=O)Cc1cc(O)ccc1Oc1ccccc1Cl
[1]
  Ki: > 100000 nM
[2]
  inhibition: < 50%

## O=C(O)Cc1ccc(O)cc1
[3]
  Ki: 2200 nM

## O=C(O)Cc1ccc(O)cc1Cc1ccccc1
[1]
  Ki: 500 nM

## O=C(O)Cc1ccccc1Nc1c(Cl)cccc1Cl [DICLOFENAC]
[1]
  Ki: 5100 nM

## O=C(O)Cc1ccc(O)cc1Oc1c(Cl)cccc1Cl
[1]
  Ki: 31 nM

## O=c1[nH]nc(Cc2cc(O)ccc2Oc2ccccc2Cl)[nH]1
[1]
  Ki: 420 nM

## Oc1ccc(Oc2ccccc2Cl)c(-c2nnn[nH]2)c1
[4]
  Ki: 40000 nM
[1]
  Ki: 25000 nM
